The source of these data is PMC12259270, “Sensory neuron–expressed FGF13 controls nociceptive signaling in diabetic neuropathy models” (The Journal of Clinical Investigation, 2025).

Structures are written as SMILES. “And” between values parts separate entries of the source, which are not always exact repeats. Equal entries are not always repeated. Residues, ends and D or L forms follow the SMILES beside them. *: point of attachment. Cbz = O=C(OCc1ccccc1)*; NHPh = c1ccc(N*)cc1; OtBu = CC(C)(C)O*

In the test the test system is donor-derived DRG neurons. Put plainly: Whole-cell current-clamp, human donor-derived DRG neurons. In kind it is cell-based. The text has this:
Human donor (hDRG) neurons. Dorsal root ganglia were recovered from consented, de-identified organ and tissue donors at the University of Cincinnati Medical Center following previously described protocols (57, 58). Recovered tissues were transported in oxygenated, ice-cold N-methyl-D-glucamine (NMDG) artificial […] (aCSF, mM): 93 NMDG, 2.5 KCl, 1.25 NaH2PO4, 30 NaHCO3, 20 HEPES, 25 Glucose, 5 Ascorbic acid, 2 Thiourea, 3 Na+ pyruvate, 10 MgSO4, 0.5 CaCl2, 12 N-acetylcysteine, adjusted to pH 7.4 with HCl). hDRGs were isolated from connective tissue, fat, roots, and nerves and then minced into small 1-3 mm pieces which were enzymatically treated with warmed papain (45U) followed by collagenase (4.5 mg/200µl) each for 40 minutes at 37 °C, 5% CO2 in HBSS with 5 mM HEPES (Hanks’ Balanced Salt Solution with 4-2 (2-hydrozyethyl)-1-piperazineethananessulfonic acid; Gibco). Neurons were dissociated by trituration and incubated in warmed Neurobasal A-based DRG media (with penicillin/streptomycin, B27 supplement (Gibco), fetal bovine serum (FBS), and GlutaMAX (Gibco, cat # 35050061), as previously described. Dissociated DRG suspension was plated onto poly-d-lysine (0.01 mg/ml, Sigma) and collagen (1 mg/ml, Sigma) coated coverslips and incubated 2 days. […]
following salts: extracellular (mM): 140 NaCl, 3 KCl, 1 MgCl2, 1 CaCl2, 10 HEPES, 10 glucose, pH 7.3; intracellular (mM): 130 CH3O3 SCs, 1 EGTA, 10 NaCl, 10 HEPES, pH 7.3. Membrane capacitance and series resistance were estimated by the dial settings on the amplifier and compensated for electronically by 70–80%.
Data was acquired at 20 kHz and filtered at 5 kHz before digitization and storage. All experimental parameters were controlled by Clampex 9.2 software (Molecular Devices) and interfaced to the electrophysiological equipment using a Digidata 1300 analog–digital interface (Molecular Devices). […]
μM PW164 or ZL192 in the extracellular solution. The recording solution consisted of the following salts: extracellular (mM): 130 NaCl, 3 KCl, 30 TEA, 0.1 CdCl2 1 MgCl2, 1 CaCl2, 10 HEPES, 10 glucose, pH 7.3; intracellular (mM): 140 CsF, 1.1 EGTA, 10 NaCl, 10 HEPES, pH 7.3.
Human donor DRG neurons: Coverslips were transferred to a recording chamber and bathed in extracellular solution (mM): 145 NaCl, 3 KCl, 2.5 CaCl2, 1.2 MgCl2, 10 HEPES, 7 glucose, 0.05 CdCl2 adjusted to pH 7.4 with NaOH, with a flow rate of 1-2 ml/min. Borosilicate glass pipettes with the resistance of 1.5 to 2.5 MΩ were made using a P-1000 micropipette puller (Sutter Instrument, Novato, CA, USA). The intracellular solution contained (mM): 130 K-gluconate, 5 KCl, 5 NaCl, 2 MgCl2, 0.3 Ethylene glycol-bis(2-aminoethylether)- NNN’N’-tetraacetic acid (EGTA), 10 HEPES, 2 Na ATP, adjusted to pH 7.3 with KOH and 294 mOsm with sucrose. Coverslips were pre-incubated in 50 µM PW164 or ZL192 or 0.1% DMSO vehicle for 1 hour before recording. Recordings were obtained on MultiClamp 700B and Digidata 1550A (Molecular Devices) and sampled […]
at 20 kHz. Neurons were investigated if resting membrane potential was below -45 mV. Neurons were held under current clamp, and membrane properties and action potential discharge were assessed as previously described […]
Human Dorsal Root Ganglia Procurement
Human dorsal root ganglia (DRGs) procurement procedures were performed in accordance with the Institutional Review Boards at the University of Texas at Dallas. DRGs were procured from organ donors through a collaboration with the Southwest Transplant Alliance (STA). DRGs were frozen in powdered dry ice at the time of extraction and then stored in a -80°C freezer until use. Details on tissue procurement procedures, quality metrics, and tissue preparation can be found on protocols.io doi:10.17504/protocols.io.kqdg32qr1v25/v1 (2024).
The medical history of each donor was provided by the STA and is a summary of information from hospital records and family members. Donor demographics, condition (non-diabetic vs diabetic painful neuropathy […]

Where [1] appears, read: 50 µM, 1 hour preincubation, relative to control.

On to `CC(=O)N[C@@H](Cc1ccccc1)C(=O)N[C@@H](CC(C)C)C(=O)N1CCC[C@H]1C(=O)N[C@@H](CCCCN)C(=O)Nc1ccccc1` [ZL192] (Ac-FLPK-NHPh), for which the “rheobase to fire an action potential” value under setting [1] is given as “decreased rheobase”. Further, the “Suppl Fig. S16A, 1x” value (single cells) stood at 1. Under “3x, single cells”, the “Suppl Fig. S16A, 3x” value was 2 and 1.

In the case of `COC(=O)[C@@H](NC(=O)[C@H](CCC(=O)OC(C)(C)C)NC(=O)[C@H](CC(C)C)NC(=O)[C@@H]1CCCN1C(=O)OCc1ccccc1)C(C)C` [PW164] (Cbz-PLE(OtBu)V-OMe), under setting [1], the action potential firing entry is “reduced action potential firing” and the “rheobase to fire an action potential” value is recorded as “increased rheobase”. Further, the “Suppl Fig. S16A, 1x” value (single cells) stood at 1.
